Assay results: patent EP2340832A1, “Morphinan-6-one compounds for the treatment or prevention of neurodegenerative diseases” (Universität Innsbruck, priority 2009, dated 2011)
pKi: −log10 of the molar value. Read-outs that look alike come from different tables or passages of the source.

What was measured:
[1] = system: frontal cortex synaptosomes; experiment: ACh release from synaptosomes (15 mM K+-evoked [3H]-ACh release, superfusion); type: cell-based, male Sprague Dawley rats
Experimental: Preparation of synaptosomes: synaptosomes were prepared from brain frontal cortex of male Sprague Dawley rats (4 months old). The frontal cortex was rapidly dissected on ice and homogenized in 40 volumes of 0.32 M sucrose buffered at pH 7.4 with 0.01 M sodium phosphate. The homogenate was centrifuged at 1,000 g for 5 min. The crude synaptosomal pellet was obtained by centrifugation of the supernatant at 15,000 g for 20 min and was resuspended in 5 ml basal medium (125 mM Nacl, 3 mM KCI, 1.2 mM MgS04, 1.2 mM CaCl2, 1.0 mM NaH2PO4, 22 mM NaHCO3 and 10 mM glucose) which had been gassed with 95% O2 - 5% CO2 at 37 °C, pH 7.2 - 7.4.
Superfusion protocol: The synaptosomal suspension was incubated with [^3H]-choline (0.03 µM, 17.5x10^6 Bq/g) for 15 min at 37 °C. Then, the suspension was diluted (1:8) and aliquots were applied on filters in a continuous superfusion system with parallel chambers maintained at 37 °C. The media used for superfusion were basal medium and 15 mM K^+-containing stimulation medium. Both media were supplemented with ACh (1 µM) to facilitate the effectiveness of an allosteric potentiating ligand at the nicotine receptor and with atropine (0.1 µM) to block M2 presynaptic receptors. Synaptosomes were superfused with basal medium for 30 min to reach a constant outflow of [^3H]-ACh. Under these experimental conditions, the radioactivity released consisted largely of newly synthesized [^3H]-ACh. The K^+-stimulated release of [^3H]-ACh was determined in 2 subsequently collected fractions: 6 min basal release (superfusion with basal medium) and 6 min K^+-evoked release (superfusion for 1.5 min with 15 mM K^+-containing medium followed by […] basal medium). The test compounds galantamine, 4 and 2 were present in the superfusion medium concomitantly with 15 mM K^+ (for 1.5 min). Basal release of [^3H]-ACh (continuous superfusion with basal medium) was determined by collection of a 6 min sample followed by four subsequent 2 min samples. Aliquots of samples were mixed with scintillation liquid and the radioactivity quantified with a scintillation counter. The radioactivity bound to the filters was also measured.
Statistical analysis: The amount of [^3H]-ACh released in each sample was calculated as fraction of total synaptosomal tritium at the start of the respective collection period (tritium in the sample / sum of tritium in the respective fractions and in the synaptosomes on the filter). K^+-evoked release was expressed as percentage of basal release rate. Each n=1 represents the mean of an experiment with one synaptosomal preparation in at least 3 superfusion chambers. Statistical significance of group variances was calculated by one way ANOVA followed by Bonferroni's test.

[2] = molecular target: T1, δ opioid receptors (Rattus norvegicus, UniProt P33533); experiment: Opioid receptor binding assay, [3H][Ile5,6]deltorphin II, rat brain membranes; design: species or system Sprague-Dawley rat
T1 construct: Membrane fractions were prepared from Sprague-Dawley rat or guinea pig brains; from tissue; host or cells: Sprague-Dawley rat brain (without cerebella) membranes
T1 sequence (P33533 whole entry): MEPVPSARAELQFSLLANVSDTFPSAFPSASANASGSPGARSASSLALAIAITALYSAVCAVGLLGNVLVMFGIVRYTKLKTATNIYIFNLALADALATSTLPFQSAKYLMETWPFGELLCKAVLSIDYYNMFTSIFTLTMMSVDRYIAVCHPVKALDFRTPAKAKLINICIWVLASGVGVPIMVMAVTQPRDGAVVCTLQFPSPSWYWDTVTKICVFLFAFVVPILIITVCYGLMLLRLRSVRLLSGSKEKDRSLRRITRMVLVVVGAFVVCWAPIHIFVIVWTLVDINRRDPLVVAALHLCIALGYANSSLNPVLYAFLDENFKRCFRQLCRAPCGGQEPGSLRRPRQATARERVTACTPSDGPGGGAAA
Experimental: Briefly, brains without cerebella were homogenised on ice in 5 volumes of ice-cold 50 mM Tris-HCI buffer (pH 7.4) and diluted in 30 volumes of the same buffer. After centrifugation at 40,000 x g for 20 min at 4°C, the pellets were resuspended in 30 volumes of Tris-HCI buffer and incubated at 37 °C for 30 min (rat brain) or for 10 min (guinea pig brain). The centrifugation step was repeated and the final pellets were resuspended in 5 volumes of 50 mM Tris-HCI buffer (pH 7.4) containing 0.32 M sucrose to give a protein concentration of 4 - 6 mg/ml. Protein concentration was determined by the method of Bradford using bovine serum albumin as standard.
Binding experiments were performed in 50 mM Tris-HCI buffer (pH 7.4) in a final volume of 1 ml containing 0.3 - 0.5 mg protein and different concentrations of the compounds. […] Guinea pig brain membranes were incubated with [^3H]U69,593 (30 min, 30 °C). Non-specific binding was determined in the presence of 10 µM unlabeled naloxone. […] Inhibition constant (Ki) values were calculated from competition binding curves using GraphPad Prism (San Diego, CA, USA) program. The values are expressed as the mean ± S.E.M of 2-4 independent experiments, each performed in duplicate.
The morphinan-6-one compounds of the present invention were evaluated in in vitro receptor binding assays for their interaction abilities with µ, δ and k opioid receptors. […] The affinities of the compounds at k opioid receptors were determined by displacement of [^3H]U69,593 using guinea pig brain membranes.

[3] = system: extracellular ACh concentration in the nucleus accumbens; details: for 0AUC120 min (% increase x min) Mean ± SEM: 0 to 120 min; for Increase in ACh release (Peak increase as % of basal output): nucleus accumbens
[4] = system: C57BL/6N female mice; experiment: T-maze continuous alternation; details: for spontaneous alternation rate: normal mice
[5] = scopolamine 0.033 µmol, compound 0.01 and 0.1 µmol i.c.v.

O=CN1CC[C@]23CC(=O)CC[C@H]2[C@H]1Cc1c(O)ccc(O)c13 [Compound 1, 1,4-dihydroxy-N-formylmorphinan-6-one]
concentration of maximal effect on stimulation-evoked ACh release ([1]; 15 mM K+): 50 µM
influence of the nAChR antagonist mecamylamine on the compound-induced release ([1]; at the maximally effective concentration (1: 50 µM)): did not influence
effect on stimulation-evoked ACh release ([1]; lower (0.1 and 1 µM) and higher concentrations (100 µM)): ineffective
pKi [2]: < 5.00
binding to opioid receptor δ (in words) [2]: does not bind
pKi ([2]; read-out: Opioid binding affinities Ki δ receptor, [3H][Ile5,6]deltorphin II, rat brain membranes): < 5.00
0AUC120 min (% increase x min) Mean ± SEM ([3]; Dose 0.5 µmol i.c.v.): 210 ± 31 % increase x min
Increase in ACh release (Peak increase as % of basal output) ([3]; Dose 0.5 µmol i.c.v.): 65 ± 16 %
0AUC120 min (% increase x min) Mean ± SEM ([3]; Dose 1 µmol i.c.v.): 1017 ± 214 % increase x min
Increase in ACh release (Peak increase as % of basal output) ([3]; Dose 1 µmol i.c.v.): 224 ± 39 %
AUC (area under the curve) of ACh (% of the basal value) ([3]; dose of 1 µmol i.c.v.): 1117±214%
level of ACh, peak value (% of the basal value) ([3]; dose of 1 µmol i.c.v.): 324±39%
dose dependence of the increase in extracellular brain ACh ([3]; i.c.v., across tested doses): dose-dependent increase
spontaneous alternation rate ([4]; 0.01 and 0.1 µmol i.c.v.): did not influence alternation
effect on scopolamine-increased running time [4, 5]: did not influence
effect on scopolamine-induced reduction in alternation [4, 5]: abolished the cholinergic impairment of alternation

C=CCN1CC[C@]23CC(=O)CC[C@H]2[C@H]1Cc1cccc(OC)c13 [Compound 4, 4-methoxy-N-allylmorphinan-6-one]
effect on K+-evoked ACh release in frontal-cortex synaptosomes ([1]; 0.01 to 10 µM): did not influence ACh release
pKi [2]: 6.50
effect on ACh in the superfusate (in words) ([3]; 0.25 µmol i.c.v., n=4, not shown): ineffective
effect on ACh in the superfusate (in words) ([3]; 0.5 µmol i.c.v.): short, delayed increase
toxicity at higher doses ([3]; 1 µmol and above, i.c.v., anaesthetized rats): could not be tested because of toxicity
0AUC120 min (% increase x min) Mean ± SEM ([3]; Dose 0.25 µmol i.c.v.): inactive
Increase in ACh release (Peak increase as % of basal output) ([3]; Dose 0.25 µmol i.c.v.): inactive
0AUC120 min (% increase x min) Mean ± SEM ([3]; Dose 0.5 µmol i.c.v.): 85 ± 26 % increase x min
Increase in ACh release (Peak increase as % of basal output) ([3]; Dose 0.5 µmol i.c.v.): 43 ± 19 %
spontaneous alternation rate ([4]; 0.05 µmol i.c.v.): decreased spontaneous alternation rate
spontaneous alternation rate ([4]; lower (0.001; 0.01 and 0.025 µmol) or higher doses (0.1 µmol) i.c.v.): did not exert a significant effect
effect on scopolamine-induced reduction in alternation ([4]; scopolamine 0.033 µmol, compound 0.01 µmol i.c.v., not shown): ineffective
effect on scopolamine-induced reduction in alternation ([4]; scopolamine 0.033 µmol, compound 0.05 µmol i.c.v.): ameliorated
